We go through 12 molecules from ChEMBL document CHEMBL1201862, “PubChem BioAssay data set” (2004).

Structures are written as SMILES.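 Tested at 5 concentrations; 48 h exposure; 96-well plates; endpoints linearly interpolated, else capped at highest concentration. GI50: concentration for 50% inhibition of growth.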 Active and inactive are the calls of the source. Rule as the data show it: active = GI50 up to about 1.1 µM and inactive = higher.

Test systems include SK-MEL-2; A498; HCT-15; MDA-MB-435; SF-268; MDA-MB-231; HCT-116; CCRF-CEM; NCI-H23; COLO 205; HOP-92; K562; PC-3; NCI/ADR-RES; SR; Hs-578T; HL-60; OVCAR-8; RXF 393; IGROV-1.
Experiment in all cases: NCI-60 cell line screen, 48 h

In the case of `CCC1OC2C(CC=C(C)C)=C3OC(C)(O)C(C)(CC)C(O)C3=C3OC(=O)C=C1C32` (stereo not given), the GI50 with SK-MEL-2 was 26.1 µM (inactive); with A498, > 100 µM (inactive); with HCT-15 it was 33 µM; in the experiment with MDA-MB-435 it was 67 µM (inactive); with SF-268, 27 µM (inactive); in the experiment with MDA-MB-231, 19 µM (inactive). Further, the GI50 with HCT-116 was 26.6 µM (inactive); with CCRF-CEM, 33.6 µM (inactive); in the experiment with NCI-H23 it was 21.6 µM (inactive); in the experiment with COLO 205, 29.9 µM (inactive); in the experiment with HOP-92, 17.3 µM (inactive); in the experiment on K562, 10.8 µM (inactive). The results for the GI50 in the experiment with PC-3 and in the experiment on NCI/ADR-RES were 68.5 µM (inactive) and 42.8 µM (inactive), respectively.

Turning to `O=C(O)c1ccccc1.[Ag]`, the GI50 is 14.4 µM (inactive) in the experiment with SK-MEL-2; 5.12 µM (inactive) with SR; 28.2 µM (inactive) in the experiment on Hs-578T; 19.2 µM (inactive) with A498; 3.98 µM (inactive) with HL-60; 21.6 µM with HCT-15. Besides, the GI50 in the experiment with MDA-MB-435 is 16.8 µM (inactive); in the experiment with SF-268 it was 21.8 µM (inactive); in the experiment with HCT-116, 6.32 µM (inactive); in the experiment on CCRF-CEM it was 1.99 µM (inactive); in the experiment with NCI-H23 it was 22.6 µM (inactive); in the experiment on OVCAR-8, 28.1 µM (inactive). For the same molecule, the GI50 is 1.87 µM (inactive) with COLO 205; 21.7 µM (inactive) in the experiment with HOP-92; 3.2 µM (inactive) in the experiment with K562; 15.8 µM (inactive) with PC-3; 18.2 µM (inactive) in the experiment with RXF 393; 34.6 µM (inactive) with NCI/ADR-RES. The GI50 with IGROV-1 is 15.7 µM (inactive).

With `COC(=O)C(Cc1c(C2Nc3ccccc3C2CC(NC(C)=O)C(=O)OC)[nH]c2ccccc12)NC(C)=O` (stereo not given), the GI50 in the experiment with SK-MEL-2 is > 100 µM (inactive); in the experiment on Hs-578T, > 100 µM (inactive); with A498, > 100 µM (inactive); in the experiment on HL-60 it was > 100 µM (inactive); with HCT-15, over 100 µM; in the experiment with MDA-MB-435 it was > 100 µM (inactive). Further, the GI50 with SF-268, with MDA-MB-231, with HCT-116, in the experiment on CCRF-CEM, with NCI-H23 and in the experiment on OVCAR-8 was > 100 µM (inactive) in each case. Also, the GI50 with COLO 205, with HOP-92, in the experiment with K562, in the experiment on PC-3, with RXF 393 and in the experiment with NCI/ADR-RES was > 100 µM (inactive) in each case. In addition, in the experiment on IGROV-1, the GI50 was > 100 µM (inactive).

For `C\C(=N/N=C1/C(=C\N(C)C)C(=O)NC(=O)N1C)c1ccc(Cl)cc1`, the GI50 is 57.9 µM (inactive) in the experiment on SK-MEL-2; > 100 µM (inactive) with Hs-578T; > 100 µM (inactive) in the experiment with A498; over 100 µM with HCT-15; 37.6 µM (inactive) with MDA-MB-435; > 100 µM (inactive) with SF-268. Moreover, the GI50 in the experiment on MDA-MB-231 is > 100 µM (inactive); in the experiment on HCT-116, 74.1 µM (inactive); in the experiment on CCRF-CEM it was 15.8 µM (inactive); in the experiment on NCI-H23, > 100 µM (inactive); with OVCAR-8 it was > 100 µM (inactive); with COLO 205, > 100 µM (inactive). Besides, the GI50 in the experiment on HOP-92 was > 100 µM (inactive); in the experiment on K562, > 100 µM (inactive); with PC-3 it was 72.1 µM (inactive); with RXF 393, > 100 µM (inactive); in the experiment on NCI/ADR-RES, > 100 µM (inactive); in the experiment with IGROV-1, 53 µM (inactive).

Consider `CC(=O)Nc1ccc(C(=O)NN2C(=O)CSC2c2ccc(O)cc2)cc1` (stereo not given), for which the GI50 in the experiment on SK-MEL-2 is > 100 µM (inactive); in the experiment on Hs-578T, > 100 µM (inactive); with A498, > 100 µM (inactive); in the experiment with HL-60 it was > 100 µM (inactive); in the experiment with HCT-15 it was over 100 µM; with MDA-MB-435, > 100 µM (inactive). The GI50 with SF-268, with MDA-MB-231, in the experiment with HCT-116, with CCRF-CEM, with NCI-H23 and in the experiment on OVCAR-8 was > 100 µM (inactive) in each case. Also, the GI50 in the experiment with COLO 205, in the experiment with HOP-92, with K562, in the experiment with RXF 393, in the experiment on NCI/ADR-RES and in the experiment on IGROV-1 was > 100 µM (inactive) each time.

Consider `COc1cc(/C=C2\C[C@H]3[C@@H]4CC=C5C[C@@H](O)CC[C@]5(C)[C@H]4CC[C@]3(C)C2=O)cc(OC)c1OC`, for which the GI50 with SK-MEL-2 was 28.8 µM (inactive); in the experiment on Hs-578T, 40.6 µM (inactive); in the experiment with A498, 51.6 µM (inactive); in the experiment with HL-60, 0.366 µM (active); with HCT-15, 22.1 µM; in the experiment on MDA-MB-435 it was 29.8 µM (inactive). The GI50 in the experiment with SF-268 is 51.5 µM (inactive); in the experiment with MDA-MB-231 it was 26.4 µM (inactive); with HCT-116, 20.1 µM (inactive); in the experiment with NCI-H23, 35.3 µM (inactive); in the experiment on OVCAR-8, 34.6 µM (inactive); in the experiment on COLO 205 it was 20.7 µM (inactive). For the same molecule, the GI50 is 30.3 µM (inactive) in the experiment on HOP-92; 12.2 µM (inactive) in the experiment on K562; 28.1 µM (inactive) in the experiment with PC-3; 19.6 µM (inactive) in the experiment with RXF 393; 27.5 µM (inactive) with NCI/ADR-RES; 64.1 µM (inactive) with IGROV-1.

On to `O=[N+]([O-])c1ccc(Cc2nc3cc4ccccc4cc3[nH]2)cc1C(F)(F)F`, for which the GI50 with SK-MEL-2 is 20 µM (inactive); with Hs-578T it was 11.6 µM (inactive); with A498, 17.7 µM (inactive); in the experiment with HL-60, 10 µM (inactive); in the experiment on HCT-15 it was 12 µM; with MDA-MB-435, 6.12 µM (inactive). Moreover, the GI50 in the experiment on SF-268 is 13.6 µM (inactive); with HCT-116 it was 13.9 µM (inactive); in the experiment with CCRF-CEM, 24.3 µM (inactive); in the experiment on NCI-H23 it was 12.5 µM (inactive); with OVCAR-8, 19 µM (inactive); with COLO 205, 4.32 µM (inactive). Further, the GI50 in the experiment on HOP-92 is 14.9 µM (inactive); in the experiment on K562, 6.56 µM (inactive); with PC-3, 15.4 µM (inactive); in the experiment with RXF 393, 13.2 µM (inactive); in the experiment on NCI/ADR-RES, 11.4 µM (inactive).

Take `CCO/C=N\C1=C(C#N)SC2=N/C(=C\c3ccc(OC)cc3)C(=O)N21`: the GI50 is 82.8 µM (inactive) with SR; 33.7 µM (inactive) with Hs-578T; > 100 µM (inactive) in the experiment with A498; 87.1 µM (inactive) in the experiment on HL-60; 85.9 µM with HCT-15; > 100 µM (inactive) with MDA-MB-435. For the same molecule, the GI50 with SF-268 was 45.4 µM (inactive); in the experiment with MDA-MB-231 it was 80.5 µM (inactive); with HCT-116, > 100 µM (inactive); in the experiment with CCRF-CEM, > 100 µM (inactive); in the experiment with NCI-H23, > 100 µM (inactive); with OVCAR-8, > 100 µM (inactive). The GI50 was > 100 µM (inactive) in the experiment on COLO 205; > 100 µM (inactive) in the experiment with HOP-92; 25.9 µM (inactive) in the experiment on K562; 43.5 µM (inactive) in the experiment with RXF 393; > 100 µM (inactive) in the experiment with NCI/ADR-RES; 96.8 µM (inactive) with IGROV-1.

Regarding `O=[N+]([O-])c1ccc(-c2ccc([C@H]3CC(c4cc(F)c(Cl)cc4Cl)=NN3)o2)cc1`, the GI50 with SR was 0.621 µM (active); in the experiment on Hs-578T, > 100 µM (inactive); with A498, 35.5 µM (inactive); in the experiment with HL-60, 1.06 µM (active); in the experiment with HCT-15, 1.52 µM; in the experiment on MDA-MB-435, 26.7 µM (inactive). The GI50 in the experiment with SF-268 is 19.1 µM (inactive); in the experiment with HCT-116, 29.6 µM (inactive); in the experiment with CCRF-CEM, 1.06 µM (active); in the experiment with NCI-H23, 2.3 µM (inactive); in the experiment on OVCAR-8, 10.8 µM (inactive); with HOP-92, 26.6 µM (inactive). Besides, the GI50 is 22.9 µM (inactive) with K562, 39.2 µM (inactive) with RXF 393, 21.6 µM (inactive) in the experiment on NCI/ADR-RES and 38.7 µM (inactive) in the experiment on IGROV-1.

As to `CSC1(CC(=O)N(C)C)C(=O)Nc2ccccc21` (stereo not given), the GI50 in the experiment on SK-MEL-2 was > 100 µM (inactive); with SR, > 100 µM (inactive); with Hs-578T, > 100 µM (inactive); in the experiment with A498, > 100 µM (inactive); in the experiment on HCT-15 it was over 100 µM; in the experiment with MDA-MB-435 it was > 100 µM (inactive). Besides, the GI50 with SF-268, in the experiment with HCT-116, in the experiment with NCI-H23, in the experiment on COLO 205, with K562 and with PC-3 was > 100 µM (inactive) throughout. The GI50 in the experiment with NCI/ADR-RES and in the experiment with IGROV-1 was > 100 µM (inactive) in each case.

In the case of `COc1cc(C(=O)Nc2c3ccccc3nc3ccccc23)cc(OC)c1OC`, the GI50 was > 100 µM (inactive) in the experiment on SK-MEL-2; > 100 µM (inactive) in the experiment with Hs-578T; 3.64 µM (inactive) in the experiment with HL-60; over 100 µM with HCT-15; > 74.5 µM (inactive) in the experiment with MDA-MB-435; 28.9 µM (inactive) with SF-268. Moreover, the GI50 was > 91.8 µM (inactive) in the experiment on MDA-MB-231; > 67.1 µM (inactive) with HCT-116; 20.5 µM (inactive) with CCRF-CEM; > 100 µM (inactive) with NCI-H23; > 59.7 µM (inactive) in the experiment on OVCAR-8; > 100 µM (inactive) in the experiment on COLO 205. For the same molecule, the GI50 with HOP-92 was 50.1 µM (inactive); with K562, > 54.3 µM (inactive); with PC-3, > 100 µM (inactive); with RXF 393 it was 14.2 µM (inactive); with NCI/ADR-RES it was > 93.5 µM (inactive); in the experiment on IGROV-1, > 100 µM (inactive).

Consider `O=C1C(Cl)=C(NCCc2ccc(O)cc2)C(=O)c2c(O)ccc(O)c21`, for which the GI50 in the experiment with SK-MEL-2 was 8.28 µM (inactive); in the experiment with HL-60, 5.42 µM (inactive); in the experiment on HCT-15, over 10 µM; with MDA-MB-435, 4.36 µM (inactive); in the experiment on SF-268, 9.12 µM (inactive); with MDA-MB-231, > 10 µM (inactive). Also, the GI50 in the experiment on HCT-116 is 8.2 µM (inactive); with CCRF-CEM it was 4.34 µM (inactive); in the experiment on NCI-H23 it was > 10 µM (inactive); with OVCAR-8 it was > 10 µM (inactive); in the experiment on COLO 205, > 10 µM (inactive); with HOP-92, > 10 µM (inactive). Also, the GI50 with K562 was > 10 µM (inactive); in the experiment on PC-3 it was > 10 µM (inactive); with NCI/ADR-RES, 3.76 µM (inactive); in the experiment with IGROV-1, > 10 µM (inactive).
